Measured values as given in patent US12060408B2, “Screening assays, modulators and modulation of activation of Receptor for Advanced Glycation End-products (RAGE)” (Monash University, priority 2017, dated 2024).

Columns and labels:
aortic endothelium = assay: Adherence of labelled leukocytes to aortae (dynamic flow assay); parameters: species or system mouse; details: ex vivo
Experimental: Adherence of Labelled Leukocytes to Aortae
After 1 week of a low sodium or normal sodium diet, apoE KO and AGER/apoE DKO animals were humanely killed and aortae were isolated, cleaned of fat and mounted in a vessel chamber primed with Krebs buffer and maintained at physiological pH by infusing carbogen gas (95% O2; 5% CO2) through the buffer at 37° C., as previously described. Whole blood labelled with DilC18 (1:1000) was then perfused through the aorta at 0.12 ml/min. As a positive control, vessels (n=6/group) were pre-treated with TNFα (4 ng/ml) for 4 hrs at 37° C. or Ang II (1 μM). Images and videos of vessel wall-cell interactions were acquired using a fluorescence microscope (Zeiss Discovery.V20), coupled to a digital camera ([…] ORCA-ER) and analysed with AxioVison software. Two to three frames were taken at each time point and the number of adherent cells per frame recorded.
Ex Vivo Studies in Isolated Aortae
Aortae were isolated from apoE KO and AGER/apoE DKO mice, divided and placed in Krebs buffer and maintained at physiological pH by infusing carbogen gas (95% O2; 5% CO2) through the buffer at 37° C. Vessels (n=6/group) were then treated with Ang II (1 μM) for 4 hours. […] Images and videos of vessel wall-cell interactions were observed using a fluorescence microscope (Zeiss Discovery.V20), coupled to a digital camera ([…] ORCA-ER) and analysed with AxioVison software.

PMAEC = assay: Generation of superoxide and additional markers of oxidative stress (DCFH, Rac-1 G-LISA, oxidized glutathione) in PMAEC; type: cell-based, mouse
Experimental: Generation of Superoxide and Additional Markers of Oxidative Stress
To quantitate superoxide production induced by Ang II, a vessel chamber assay was used to measure total cytoplasmic and mitochondrial superoxide production in real time in PMAEC from AGER KO and C57Bl6 aortae. PMAEC were grown on collagen coated cover slips and mounted into a sealed glass chamber when they were 80% confluent. The chambers were perfused with Krebs buffer for an hour with fluorescent readings taken every 10 minutes to establish baseline readings. The cells were then perfused with 1 μM Ang II for 60 minutes and fluorescent readings were taken every 1 minute for a further 10 minutes. Fluorescence readings were expressed as change (Δ) in fluorescence arbitrary units from baseline. Levels of the activated NADPH oxidase subunit, Rac-1 activation was also measured in cell lysates after exposure to Ang II using a Rac-1 G-LISA activation assay (Cytoskeleton), as per manufacturers' instructions. Additional markers of oxidative stress were also assayed including levels of oxidized glutathione, (Cayman Chemical Company, US), performed as per manufacturer's instructions.

angiotensin II (DRVYIHPF) [Ang II, cognate ligand of AT1R]
endothelial adhesiveness of primed leucocytes (aortic endothelium; aortae from AGER/apoE DKO mice, 1 μM): prevents | number of adherent leukocytes (aortic endothelium; aortae from apoE KO mice, 1 μM vs untreated): increased number of adherent leukocytes | ROS production and oxidative stress (PMAEC; PMAEC from AGER KO mice): does not lead to | production of ROS and other markers of oxidative stress (activated rac-1, oxidised glutathione) (PMAEC; PMAEC from C57bl6 mice, 1 μM): rapid increase
